Experimental data reported in patent publication US20090311348A1, “PHARMECEUTICAL AND COSMETIC USE OF SILICA” (priority 2006, published 2009).
Entries after “also recorded” stand apart in the source; their conditions may differ.

What was measured:
Assay type in all cases: cell-based
Loricrin = experiment: Induction of differentiation marker loricrin in human epidermal keratinocytes (real time RT-PCR); details: NHEK, several concentrations
Experimental: (§1) Silica mud precipitate was obtained from a natural source (Blue Lagoon geothermal basin, Svartsengi, Iceland). Sodium metasilicate was obtained from Prof. Dr. G. Lehmann, Biochemistry, Regensburg University. As control a ceramide mix (10 μM) was used to induce the differentiation markers.
(§2) Long term cultured normal human epidermal keratinocytes, NHEK, prepared from neonatal foreskin are cultured in Keratinocyte SFM (Invitrogen™, Heidelberg, Germany) supplemented with bovine pituitary extract (Invitrogen, Heidelberg, Germany) and recombinant epidermal growth factor (Invitrogen, Heidelberg, Germany). Cells are propagated up to passage 2 or 3 at 37° C. and 5% CO2. For induction of differentiation NHEKs are seeded in 6-well plates and grown up to confluence and treated with several concentrations of the silica preparates.
(§3) Total RNA was isolated using RNeasy Total RNA Kits (Qiagen, Hilden, Germany). The RNA concentration was determined via photometric measurement at 260/280 (Biophotometer, Eppendorf AG, Hamburg, Germany). An aliquot of 10 ng RNA was used for cDNA synthesis. […]
(§4) PCR reactions were carried out on an opticon 1 (MJ Research, Waltham, Mass., USA) using SYBR Green® PCR Master Mix (Applied Biosystems, Darmstadt, Germany). Each sample was analyzed in double employing the universal protocol over 36 cycles. […]

Filaggrin = experiment: Induction of differentiation marker filaggrin in human epidermal keratinocytes (real time RT-PCR); details: NHEK, several concentrations
Experimental: as §1, §2, §3, §4

transglutaminase-1 = experiment: Induction of differentiation marker transglutaminase-1 in human epidermal keratinocytes (real time RT-PCR); details: NHEK, several concentrations
Experimental: as §1, §2, §3, §4

collagen 1A1 = experiment: Collagen 1A1 gene expression in human dermal fibroblasts; details: real time RT-PCR
From the text: Human dermal fibroblasts, HDF, prepared from neonatal foreskin and cultured for 4 days until they reached confluence as described in Example 3.

Involucrin = experiment: Induction of differentiation marker involucrin in human epidermal keratinocytes (real time RT-PCR); details: NHEK, several concentrations
Experimental: as §1, §2, §3, §4

## O=[Si]([O-])[O-].[Na+].[Na+] [sodium metasilicate]
Loricrin
  expression of loricrin: induced
Filaggrin
  expression of filaggrin: substantial up-regulation; also recorded: induced; also recorded: stronger than with silica mud
transglutaminase-1
  expression of transglutaminase-1: substantial up-regulation; also recorded: induced
Collagen 1A1
  collagen 1A1 gene expression: did not show any increase
Involucrin
  expression of involucrin: substantial up-regulation; also recorded: induced
